Publication PMC8478262 (Blood Cancer Discovery, 2021)
Like-named read-outs stand apart in the source and are kept apart here. Each block holds one compound with its values, some of them ahead of it.

Legend:
MOLM-14 cells = type: cell-based; details: for increase in IC50 (inhibition) in the presence of 50% human plasma: 50% human plasma vs 10% FBS
FLT3 = type: cell-based
Ba/F3-FLT3/ITD-Luc cells = type: in vivo, BALB/c mice
HL-60 cells = experiment: Antiproliferative effect of staurosporine on HL-60 cells in the presence of AGP; type: cell-based; details: until saturating concentrations of drug were used
[1] = Human AGP levels and tolerability in mice after intraperitoneal injection; type: in vivo; details: 0.3 g/kg i.p.

Compound: CCc1nc(C(N)=O)c(Nc2ccc(N3CCC(N4CCN(C)CC4)CC3)c(OC)c2)nc1NC1CCOCC1 [gilteritinib]
- effect of plasma proteins on activity (MOLM-14 cells; 50% human plasma or 50 mg/dL AGP, 48 h MTT): minimally affected

- increase in IC50 (inhibition) in the presence of 50% human plasma (MOLM-14 cells; 48 h MTT): greater than 100 fold
- IC50 increase by bovine AGP (MOLM-14 cells; bovine AGP adjusted to human-comparable levels): ~5 fold
Compound: C[C@]12O[C@H](C[C@]1(O)CO)n1c3ccccc3c3c4c(c5c6ccccc6n2c5c31)CNC4=O [lestaurtinib]
- IC50 in 50% human plasma compared with 10% FBS (MOLM-14 cells; 50% human plasma from healthy donors, 48 h): IC50s were no longer reached
- activity across a range of AGP concentrations (MOLM-14 cells; AGP 31 µg/mL – 2 mg/mL, 48 h MTT): appreciable activity is seen only at AGP concentrations less than one tenth of physiologic human levels
- FLT3 phosphorylation inhibition in the presence of human plasma (FLT3; 10 nmol/L and 100 nmol/L TKI, 50% human plasma): no appreciable FLT3 TKI activity

Compound: CO[C@@H]1[C@H](N(C)C(=O)c2ccccc2)C[C@H]2O[C@]1(C)n1c3ccccc3c3c4c(c5c6ccccc6n2c5c31)C(=O)NC4 [midostaurin]
- response of transplanted FLT3/ITD cells (bioluminescence day 9) (Ba/F3-FLT3/ITD-Luc cells; midostaurin alone, oral gavage 4 days): regression of the cells
- response of transplanted FLT3/ITD cells (bioluminescence day 9) (Ba/F3-FLT3/ITD-Luc cells; midostaurin plus intraperitoneal human AGP): progression of the cells comparable with that seen in the control animals

Compound: CC#C[C@]1(O)CC[C@H]2[C@@H]3CCC4=CC(=O)CCC4=C3[C@@H](c3ccc(N(C)C)cc3)C[C@@]21C [mifepristone]
- response of transplanted FLT3/ITD cells (bioluminescence day 9) (Ba/F3-FLT3/ITD-Luc cells; midostaurin plus human AGP plus oral mifepristone): regression of the transplanted cells comparable with those of the midostaurin alone–treated mice
- effect of mifepristone alone on cell growth (MOLM-14 cells; at concentrations of maximal effect, no TKI): no appreciable effect on cell growth
- impact upon TTT-3002 dose–response curves in the absence of AGP (MOLM-14 cells; no AGP): had no impact
- effect alone upon FLT3 autophosphorylation or downstream signaling (FLT3; mifepristone alone): no effect

- increase in IC50 (inhibition) in the presence of 50% human plasma (MOLM-14 cells; 48 h MTT): 37 fold
Compound: CC(C)(C)c1cc(NC(=O)Nc2ccc(-c3cn4c(n3)sc3cc(OCCN5CCOCC5)ccc34)cc2)no1 [quizartinib]

- increase in IC50 (inhibition) in the presence of 50% human plasma (MOLM-14 cells; 48 h MTT): greater than 100 fold
Compound: CNC(=O)c1cc(Oc2ccc(NC(=O)Nc3ccc(Cl)c(C(F)(F)F)c3)cc2)ccn1 [sorafenib]

Compound: CN[C@@H]1C[C@H]2O[C@@](C)([C@@H]1OC)n1c3ccccc3c3c4c(c5c6ccccc6n2c5c31)C(=O)NC4 [staurosporine]
- antiproliferative activity in the presence of AGP (HL-60 cells): no appreciable activity

Compound: human AGP: alpha-1-acid glycoprotein purified from human plasma (Sigma), injected i.p. into mice
- terminal half-life [1]: approximately 17 hours
